From PMC9013689, “Development of reconstructed intestinal micronucleus cytome (RICyt) assay in 3D human gut model for genotoxicity assessment of orally ingested substances” (Archives of Toxicology, 2022)
Values joined by “and” are separate entries in the source; they are usually repeats but may differ in a detail not shown here. Equal entries are not always repeated. Structures can show the parent of a compound that is named as a salt. Where two headings read alike, the source gives them in different places.

Experiments:
3D EpiIntestinal™ tissue [1] = assay: Cytokinesis-blocked micronucleus analysis (CBMN) in EpiIntestinal™ tissue; assay type: cell-based, human; details: 6 μg/ml, apical and basolateral, 10 days
Protocol: The CBMN assay was conducted according to a previously published procedure (Fenech and Morley [1985b]). Briefly, cytochalasin B (5474, Tocris Bioscience, Bristol, UK, 6 μg/ml) was applied to the 3D EpiIntestinal™ in vitro tissues every other day, to the apical and to the basolateral compartments. […] The cell suspension was stored in fixative at 4 °C overnight, stained with acridine orange (1:100 dilution in 1 × PBS, A1301, Invitrogen; Thermo Fisher Scientific, Waltham, MA) and scored under fluorescence microscopy (Zeiss Axioimager, equipped with triple band excitation fluorescence filter set: DAPI, FITC and Texas red). Scoring was performed following the criteria developed by Fenech et al. (Fenech et al. [2003], [2007]). One thousand total cells per microtissue were scored to determine the percentage of cells with one (mononucleated) or two nuclei (binucleated). The results were generated from three independent experiments. Each experiment consisted of a single microtissue per dose.

3D EpiIntestinal™ tissue [2] = assay: Reconstructed intestine micronucleus cytome (RICyt) assay
Excerpt: EpiIntestinal™ tissue (SMI-200-FT v2.0) was purchased from MatTek Corporation® (Ashland, MA). The EpiIntestinal™ construct is a differentiated 3D tissue model that consists of intestinal villi and crypts topology resembling the normal human small intestine. […] The mature tissues are shipped sealed in 24-well agar-plugged plates to the designated laboratory (in this instance, Singapore). Upon receipt, the tissues are revived overnight in fresh SMI-100-MM before use in assays.
(§1) Test compound stock solutions were prepared in DMSO (D161802, Sigma Aldrich, St Louis, MO). For the 3D tissues, dilutions were made in complete culture media yielding ≤ 0.1% DMSO final concentration. Media containing 0.1% DMSO (i.e. without test article) were applied to tissues to serve as the vehicle control. All 3D tissues were treated apically every alternate day (from day 0–6) and daily (from day 7–9), while basolateral wells contain untreated culture media to support the tissue growth. TK6 cells were exposed for 24 h with the test materials prior to harvest.
(§2) 3D tissues were dissociated using human tumour dissociation kit (Miltenyl Biotec, Bergisch Gladbach, Germany), as per manufacturers’ instruction, with minor modifications. Individual 3D tissues cultured on microporous membranes were excised from the culture inserts and incubated for 15 min in cell recovery solution (Corning, Tewksbury, MA). The tissues were subsequently peeled off from the membrane with fine point forceps under stereo microscope (Leica Microsystems, Wetzlar, Germany). The peeled tissues were placed into gentleMACS C-tube (Miltenyi Biotech, Bergisch Gladbach, Germany) containing the enzyme mix described in the kit’s protocol. The tubes were then transferred into a gentleMACS octo dissociator with heater (Miltenyi Biotech, Bergisch Gladbach, Germany), and subjected to one cycle of ‘37C_m_LPDK_1’ program. Upon completion, the cell suspension was centrifuged at 1000 rpm for 5 min; the supernatant was removed and the pellet was resuspended in 2 mL of Hanks Balanced Salts Solution (HBSS). […] The proliferation of the 3D tissue was estimated through calculation of population doubling based on the dissociated cell number at the day 1, 6 and 11 after tissue revival. The cells were then (1) fixed for micronuclei scoring or (2) processed for subsequent experimentation.
Tissues were exposed to test substances, harvested and dissociated into single cell suspension as described above. Cell suspension samples were divided equally; half of the cell suspension sample was fixed in Carnoy’s solution with 3 fixation steps in methanol/acetic acid […], supplemented with formaldehyde at 1st fixation. The cell suspension was aged at least overnight at 4 °C to improve the quality of fixed cells. The remaining cells were incubated with 4% formaldehyde for 15 min, rinsed twice with 1 × PBS and stored in 4 °C. […] One thousand total cells were scored per microtissue to determine the frequency of MN and cytome. The percentage of MN and cytome at each concentration of test chemical was compared with the solvent control. The results were generated from three independent experiments. Each experiment consisted of a single microtissue per dose.

3D EpiIntestinal™ tissue [3] = details: human, 10 days
Protocol: as §1
as §2, with “revival.” for “revival. The cells were then (1) fixed for micronuclei scoring or (2) processed for subsequent experimentation.”

TK6 cells [4] = details: 24 h-exposure, dose not printed (Fig. 6b)
TK6 cells [5] = details: 24 h, comparable across all concentrations tested; DMSO control 0.7%
[6] = 50 ng/ml, apical, 10 days, Carnoy's fixative, mean ± SE
[7] = 250 ng/ml, apical, 10 days, Carnoy's fixative, mean ± SE
[8] = 500 ng/ml, apical, 10 days, Carnoy's fixative, mean ± SE

## C=C1[C@@H](C)[C@H]2[C@H](Cc3ccccc3)NC(=O)[C@]23OC(=O)/C=C/[C@H](O)CCC[C@@H](C)C/C=C/[C@H]3[C@@H]1O [Cyt-B, cytochalasin B]
3D EpiIntestinal™ tissue [1]
  cells containing BN (binucleated): 8.1% and ~ 8.1%
  mononuclear cells: 91.9%

## c1ccc2c(c1)cc1ccc3cccc4ccc2c1c34 [benzo(a)pyrene]
3D EpiIntestinal™ tissue [2]; human, 10 days, 6.25 μg/ml
  BN, binucleated cells: 1.30 ± 0.12%
  CC, condensed chromatin: 0.13 ± 0.03%
  KL, karyolysis: 0.60 ± 0.25%
  KR, karyorrhexis: 5.59 ± 0.41 %
  Mono, mononucleated cells (basal and differentiated): 89.96 ± 0.56%
  PY, pyknosis: 0.23 ± 0.03%
3D EpiIntestinal™ tissue [2]; human, 10 days, 12.5 μg/ml
  BN, binucleated cells: 1.80 ± 0.38%
  CC, condensed chromatin: 0.37 ± 0.22%
  KL, karyolysis: 0.63 ± 0.23%
  KR, karyorrhexis: 7.27 ± 1.07%
  Mono, mononucleated cells (basal and differentiated): 85.87 ± 1.30%
  PY, pyknosis: 0.40 ± 0.21%
3D EpiIntestinal™ tissue [2]; human, 10 days, 25 μg/ml
  BN, binucleated cells: 0.99 ± 0.29%
  CC, condensed chromatin: 0.20 ± 0.10%
  KL, karyolysis: 0.40 ± 0.20%
  KR, karyorrhexis: 6.24 ± 0.06 %
  Mono, mononucleated cells (basal and differentiated): 88.11 ± 1.01%
  PY, pyknosis: 0.56 ± 0.33%
3D EpiIntestinal™ tissue [3]
  doses with significant decreases in cell population: ≥ 6.25 µg/mL

## CO[C@@]12[C@H](COC(N)=O)C3=C(C(=O)C(C)=C(N)C3=O)N1C[C@@H]1N[C@@H]12 [mitomycin C]
TK6 cells [4]
  population decline: 55%

## [H]/N=C(/N)N/C(=N/[H])NCCc1ccccc1 [phenformin HCl, Phenformin HCl]
3D EpiIntestinal™ tissue [2]
  RICyt assay outcome: inactive
3D EpiIntestinal™ tissue [2]; 10 days' exposure, DMSO control […]
  prevalence of MN: ~ 1%
3D EpiIntestinal™ tissue [3]; 62.5 µg/ml
  loss of viable cell populations: 40%
3D EpiIntestinal™ tissue [3]; 125 µg/ml
  loss of viable cell populations: 45%
3D EpiIntestinal™ tissue [3]; 250 µg/ml
  loss of viable cell populations: 60%
TK6 cells [5]
  prevalence of MN in TK6 cells: ~ 0.6%

## CC[C@]1(O)C[C@@H]2CN(CCc3c([nH]c4ccccc34)[C@@](C(=O)OC)(c3cc4c(cc3OC)N(C)[C@H]3[C@@](O)(C(=O)OC)[C@H](OC(C)=O)[C@]5(CC)C=CCN6CC[C@]43[C@@H]65)C2)C1 [vinblastine sulphate]
3D EpiIntestinal™ tissue [2]; [6]
  BN, binucleated cells: 0.77 ± 0.12%
  Buds, nuclear buds: 0.63 ± 0.29%
  CC, condensed chromatin: 0.07 ± 0.03%
  KL, karyolysis: 1.23 ± 0.74%
  KR, karyorrhexis: 4.90 ± 0.63%
  MN, micronuclei: 2.71 ± 0.44%
  Mono, mononucleated cells (basal and differentiated): 89.09 ± 1.25%
  PY, pyknosis: 0.6 ± 0.12%
3D EpiIntestinal™ tissue [2]; [7]
  BN, binucleated cells: 0.86 ± 0.38%
  Buds, nuclear buds: 0.53 ± 0.28%
  CC, condensed chromatin: 0.15 ± 0.13%
  KL, karyolysis: 1.82 ± 1.01%
  KR, karyorrhexis: 4.75 ± 1.30%
  MN, micronuclei: 3.11 ± 0.36 %
  Mono, mononucleated cells (basal and differentiated): 87.14 ± 2.07%
  PY, pyknosis: 1.66 ± 0.49%
3D EpiIntestinal™ tissue [2]; [8]
  BN, binucleated cells: 0.94 ± 0.49%
  Buds, nuclear buds: 0.50 ± 0.16%
  CC, condensed chromatin: 0.17 ± 0.02 %
  KL, karyolysis: 1.79 ± 1.05%
  KR, karyorrhexis: 6.48 ± 2.52%
  MN, micronuclei: 3.46 ± 0.16 %
  Mono, mononucleated cells (basal and differentiated): 84.89 ± 3.06%
  PY, pyknosis: 1.77 ± 0.77%
3D EpiIntestinal™ tissue [2]; apical, 10 days
  frequency of pyknotic and karyolytic cells: increased
3D EpiIntestinal™ tissue [3]
  doses with significant decreases in cell population: 0.5 µg/mL
